Reference: patent US20200239530A1, “COMPOUNDS AND METHODS OF MODULATING PROTEIN DEGRADATION” (Vividion Therapeutics, Inc., priority 2017, published 2020)
Like-named read-outs stand apart in the source and are kept apart here.

What was measured:
Assay in all cases: Cysteine liganding, probe competition
Assay type in all cases: binding
UniProt O60260 = target: T1, UniProt O60260 (Homo sapiens, UniProt O60260)
T1 construct: 200 μL of lysate containing 5 mg/ml proteome was treated with 2 μL of 100× compound stock; endogenous in cells
T1 sequence (O60260 1-465): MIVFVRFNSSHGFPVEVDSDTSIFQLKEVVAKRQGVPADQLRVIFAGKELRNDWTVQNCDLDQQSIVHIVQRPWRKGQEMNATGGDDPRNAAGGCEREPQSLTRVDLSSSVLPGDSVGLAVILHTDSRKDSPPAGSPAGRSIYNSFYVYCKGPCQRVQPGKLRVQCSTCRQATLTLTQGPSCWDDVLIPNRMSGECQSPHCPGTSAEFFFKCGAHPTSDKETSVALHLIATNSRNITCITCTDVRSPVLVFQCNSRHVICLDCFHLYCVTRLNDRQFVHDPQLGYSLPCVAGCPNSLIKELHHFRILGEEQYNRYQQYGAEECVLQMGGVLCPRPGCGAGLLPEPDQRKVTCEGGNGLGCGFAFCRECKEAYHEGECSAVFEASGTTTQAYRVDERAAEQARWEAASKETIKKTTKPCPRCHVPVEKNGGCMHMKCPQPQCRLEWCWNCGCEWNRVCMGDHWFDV
Text: (§1) The following 96-well sample prep protocol was used for sample preparation.

UniProt A0AVI4 = target: T2, UniProt A0AVI4 (Homo sapiens, UniProt A0AVI4)
T2 construct: 200 μL of lysate containing 5 mg/ml proteome was treated with 2 μL of 100× compound stock; endogenous in cells
T2 sequence (A0AVI4 1-362): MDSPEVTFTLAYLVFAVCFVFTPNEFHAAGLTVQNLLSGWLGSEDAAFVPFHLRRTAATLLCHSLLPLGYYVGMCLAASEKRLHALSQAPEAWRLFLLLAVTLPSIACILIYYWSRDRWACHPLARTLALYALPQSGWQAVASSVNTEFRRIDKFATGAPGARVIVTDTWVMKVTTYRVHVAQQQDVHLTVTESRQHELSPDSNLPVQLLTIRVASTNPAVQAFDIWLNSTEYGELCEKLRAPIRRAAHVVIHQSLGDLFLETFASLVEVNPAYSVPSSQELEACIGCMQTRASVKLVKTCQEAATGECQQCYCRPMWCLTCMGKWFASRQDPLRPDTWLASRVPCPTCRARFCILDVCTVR
Text: as §1

UniProt Q5W0B1 = target: T3, UniProt Q5W0B1 (Homo sapiens, UniProt Q5W0B1)
T3 construct: 200 μL of lysate containing 5 mg/ml proteome was treated with 2 μL of 100× compound stock; endogenous in cells
T3 sequence (Q5W0B1 1-726): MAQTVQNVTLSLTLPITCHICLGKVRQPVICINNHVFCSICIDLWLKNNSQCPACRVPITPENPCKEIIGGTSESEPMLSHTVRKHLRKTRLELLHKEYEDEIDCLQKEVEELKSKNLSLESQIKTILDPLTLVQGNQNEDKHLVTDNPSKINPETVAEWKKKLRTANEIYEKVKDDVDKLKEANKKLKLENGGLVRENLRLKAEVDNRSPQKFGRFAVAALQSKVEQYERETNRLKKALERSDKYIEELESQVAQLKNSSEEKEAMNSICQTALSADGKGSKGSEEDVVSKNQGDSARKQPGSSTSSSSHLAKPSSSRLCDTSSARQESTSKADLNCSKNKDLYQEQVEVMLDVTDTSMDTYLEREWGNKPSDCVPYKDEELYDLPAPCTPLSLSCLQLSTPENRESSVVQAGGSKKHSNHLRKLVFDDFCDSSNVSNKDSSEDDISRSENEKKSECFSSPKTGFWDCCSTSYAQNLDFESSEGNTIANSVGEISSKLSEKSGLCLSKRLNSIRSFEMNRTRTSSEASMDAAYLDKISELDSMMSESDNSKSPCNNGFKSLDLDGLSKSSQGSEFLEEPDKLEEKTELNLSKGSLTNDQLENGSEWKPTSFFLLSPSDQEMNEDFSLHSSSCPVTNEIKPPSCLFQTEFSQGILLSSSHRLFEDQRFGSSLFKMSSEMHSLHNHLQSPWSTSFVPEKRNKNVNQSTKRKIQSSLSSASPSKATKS
Text: as §1

UniProt O15524 = target: T4, UniProt O15524 (Homo sapiens, UniProt O15524); conditions: for inhibition at 500 µM: read-out: percent_inhibition
T4 construct: 200 μL of lysate containing 5 mg/ml proteome was treated with 2 μL of 100× compound stock; endogenous in cells
T4 sequence (O15524 1-211): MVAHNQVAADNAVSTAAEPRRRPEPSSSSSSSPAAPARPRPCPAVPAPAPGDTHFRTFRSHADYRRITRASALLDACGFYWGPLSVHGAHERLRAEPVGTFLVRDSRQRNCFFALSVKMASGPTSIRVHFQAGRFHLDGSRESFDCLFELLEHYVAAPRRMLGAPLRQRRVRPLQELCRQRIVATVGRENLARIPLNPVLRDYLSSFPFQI
Text: as §1

[1] = 500 uM, read-out: percent_inhibition

inhibition at 500 µM (UniProt O60260; read-out: KB05_500 uM_percent_inhibition) [%] | SMILES | inhibition at 100 µM (UniProt A0AVI4; read-out: percent_inhibition) [%] | inhibition at 500 µM (UniProt Q5W0B1; [1]) [%] | inhibition at 500 µM (UniProt O15524) [%] | KB03_500 uM_percent_inhibition (UniProt O60260; 500 uM) [%] | percent_inhibition (UniProt A0AVI4; 500 uM) [%] | percent_inhibition (UniProt Q5W0B1; 500 uM) [%] | percent_inhibition (UniProt O15524; 500 uM) [%] | inhibition at 500 µM (UniProt O60260; read-out: KB02_500 uM_percent_inhibition) [%] | inhibition at 500 µM (UniProt A0AVI4; [1]) [%] | inhibition at 100 µM (UniProt Q5W0B1; 100 uM, read-out: percent_inhibition) [%]
93 | C=CC(=O)N(c1ccccc1)c1ccc(Br)cc1 [KB05] | 15 | 48 | 56 | – | – | – | – | – | – | –
– | O=C(CCl)Nc1cc(C(F)(F)F)cc(C(F)(F)F)c1 [KBO3] | – | – | – | 91 | 58 | 28 | 35 | – | – | –
– | COc1ccc2c(c1)CCCN2C(=O)CCl [KB02] | 14 | 54 | 38 | – | – | – | – | 92 | 44 | 17
